Among the test systems are RPMI-8226 leukemia; SK-MEL-5 melanoma; PC-3 prostate; ACHN renal; SF-539 CNS; SK-MEL-28 melanoma; A498 renal; HCT-116 colon; 786-0 renal; U251 CNS.
Holding throughout (assay): growth of human tumour cells (NCI), 48 h

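Values below derive from 48-hour exposures of cells grown in 96-well plates, with endpoints linearly interpolated between the two concentrations bracketing the appropriate inhibition level. GI50 marks 50% less growth. Definition used: TGI = concentration required for complete inhibition of growth.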

Take `CNC(=O)c1cncc(/C=C/c2c(Cl)cccc2Cl)c1`: the GI50 was over 25 µM in the assay on RPMI-8226 leukemia; 14.5 µM with SK-MEL-5 melanoma; over 21.6 µM in the assay on PC-3 prostate; over 23.2 µM with ACHN renal; 9.43 µM in the assay on SF-539 CNS; over 25 µM in the assay with SK-MEL-28 melanoma. Further, the GI50 was 7.44 µM in the assay with A498 renal, over 25 µM in the assay with HCT-116 colon, over 25 µM with 786-0 renal and over 25 µM with U251 CNS. Also, the TGI in the assay with RPMI-8226 leukemia, with SK-MEL-5 melanoma, with PC-3 prostate, in the assay with ACHN renal, in the assay with SF-539 CNS and in the assay on SK-MEL-28 melanoma was over 25 µM each time. For the same compound, the TGI in the assay with A498 renal, with HCT-116 colon, in the assay on 786-0 renal and with U251 CNS was over 25 µM each time.

For `O=C(NN1C(=O)CSC12CCC(c1ccccc1)CC2)c1[nH]c2ccc(F)cc2c1-c1ccccc1` (stereo not given), the GI50 with RPMI-8226 leukemia is 13.8 µM; in the assay with SK-MEL-5 melanoma, 17.5 µM; in the assay with PC-3 prostate, 18.1 µM; in the assay on ACHN renal, 17.2 µM; in the assay with SF-539 CNS, 20.9 µM; in the assay with SK-MEL-28 melanoma, 18.1 µM. In addition, the GI50 in the assay with A498 renal is 18.5 µM; in the assay on HCT-116 colon it was 14 µM; with 786-0 renal it was 16.4 µM; in the assay on U251 CNS, 15.6 µM. Also, the TGI amounted to 31.8 µM in the assay with RPMI-8226 leukemia; 32.3 µM in the assay with SK-MEL-5 melanoma; 39.6 µM with PC-3 prostate; 31.8 µM in the assay on ACHN renal; 38.3 µM in the assay with SF-539 CNS; 34.3 µM in the assay with SK-MEL-28 melanoma. Moreover, the TGI turned out to be 34.9 µM with A498 renal, 27.1 µM in the assay on HCT-116 colon, 33.8 µM with 786-0 renal and 29.9 µM with U251 CNS.

Turning to `O=C(Cn1c2ccccc2c2ccncc21)N/N=C\c1ccc2ccccc2c1`, the GI50 was 7.88 µM in the assay with RPMI-8226 leukemia; 23 µM in the assay with SK-MEL-5 melanoma; 19 µM in the assay on PC-3 prostate; 19.3 µM in the assay on ACHN renal; 13.6 µM in the assay on SF-539 CNS; 19.2 µM in the assay with SK-MEL-28 melanoma. Further, the GI50 in the assay with A498 renal was 27.5 µM; in the assay on HCT-116 colon, 3.51 µM; in the assay on 786-0 renal, 13.8 µM; in the assay with U251 CNS, 14.5 µM. The TGI is over 100 µM in the assay on RPMI-8226 leukemia; over 100 µM in the assay on SK-MEL-5 melanoma; over 100 µM with PC-3 prostate; 48.5 µM in the assay on ACHN renal; 28.7 µM in the assay with SF-539 CNS; 79.7 µM in the assay on SK-MEL-28 melanoma. In addition, the TGI in the assay on A498 renal is 80.8 µM; with HCT-116 colon, 15 µM; in the assay on 786-0 renal, 30 µM; in the assay with U251 CNS, 29.5 µM.

For `CN(C)C(=S)SCC(N)=O`, the TGI in the assay on RPMI-8226 leukemia, with SK-MEL-5 melanoma, with PC-3 prostate, with ACHN renal, in the assay with SF-539 CNS and in the assay with SK-MEL-28 melanoma was over 100 µM each time. Besides, the TGI in the assay on A498 renal, in the assay on HCT-116 colon, in the assay with 786-0 renal and with U251 CNS was over 100 µM in each case.

As to `O=C(CN1C(=O)S/C(=C\C(Cl)=C\c2ccccc2)C1=O)NCCCn1ccnc1`, the GI50 is 1.78 µM in the assay with RPMI-8226 leukemia; 1.68 µM in the assay on SK-MEL-5 melanoma; 2.03 µM in the assay with PC-3 prostate; 1.99 µM in the assay with ACHN renal; 2.08 µM with SF-539 CNS; 1.85 µM in the assay with SK-MEL-28 melanoma. Besides, the GI50 is 1.28 µM in the assay with A498 renal, 1.53 µM with HCT-116 colon, 1.98 µM in the assay on 786-0 renal and 2.54 µM in the assay with U251 CNS. Further, the TGI worked out at 6.74 µM with RPMI-8226 leukemia; 3.06 µM with SK-MEL-5 melanoma; 5.74 µM with PC-3 prostate; 5.22 µM with ACHN renal; 5.27 µM in the assay on SF-539 CNS; 3.72 µM in the assay with SK-MEL-28 melanoma. In addition, the TGI in the assay on A498 renal turned out to be 5.57 µM; in the assay on HCT-116 colon, 3.14 µM; in the assay with 786-0 renal, 3.91 µM; in the assay with U251 CNS, 8.01 µM.

In the case of `COc1ccc2c(c1)C=C1CSCC3=Cc4cc(OC)ccc4OC13O2`, the GI50 in the assay with RPMI-8226 leukemia was 0.368 µM; in the assay on SK-MEL-5 melanoma, 0.41 µM; with PC-3 prostate, 0.36 µM; in the assay with ACHN renal it was 0.863 µM; in the assay with SF-539 CNS, 0.254 µM; with SK-MEL-28 melanoma, over 28.2 µM. Further, the GI50 in the assay with A498 renal is 0.23 µM; in the assay on HCT-116 colon, 0.471 µM; in the assay on 786-0 renal, 0.821 µM; with U251 CNS, 0.427 µM. Also, the TGI in the assay with RPMI-8226 leukemia was over 34.4 µM; in the assay on SK-MEL-5 melanoma it was over 100 µM; in the assay on PC-3 prostate it was over 100 µM; in the assay with ACHN renal, over 100 µM; in the assay on SF-539 CNS it was 0.816 µM; with SK-MEL-28 melanoma, over 100 µM. For the same compound, the TGI was 0.766 µM in the assay on A498 renal, over 100 µM in the assay on HCT-116 colon, over 100 µM in the assay with 786-0 renal and over 100 µM with U251 CNS.

On to `c1ccc(/C(=N\Nc2ccc3ccccc3n2)c2ccccn2)cc1`, for which the GI50 was 0.503 µM with RPMI-8226 leukemia; 0.487 µM with SK-MEL-5 melanoma; 1.25 µM with PC-3 prostate; 0.49 µM in the assay on ACHN renal; 0.682 µM in the assay with SF-539 CNS; 2.66 µM with SK-MEL-28 melanoma. Moreover, the GI50 was 2.92 µM in the assay on A498 renal, 0.436 µM in the assay on HCT-116 colon, 0.509 µM with 786-0 renal and 0.592 µM in the assay on U251 CNS. Also, the TGI in the assay with RPMI-8226 leukemia worked out at 3.68 µM; in the assay with SK-MEL-5 melanoma it was 2.92 µM; in the assay on PC-3 prostate, 55.3 µM; with ACHN renal it was 8.78 µM; with SF-539 CNS, 4.57 µM; with SK-MEL-28 melanoma, 39 µM. Also, the TGI in the assay on A498 renal came out at 80.4 µM; in the assay on HCT-116 colon it was 5.62 µM; in the assay with 786-0 renal it was 4.35 µM; in the assay with U251 CNS it was 13 µM.

On to `CCc1nc(N)nc(N)c1C#CC(C)c1cc(-c2ccnc(C)c2)c2oc(C)nc2c1` (stereo not given), for which the GI50 is 0.0771 µM with RPMI-8226 leukemia; under 0.01 µM in the assay with SK-MEL-5 melanoma; under 0.01 µM in the assay on PC-3 prostate; under 0.01 µM in the assay with ACHN renal; under 0.01 µM in the assay with SF-539 CNS; 0.106 µM in the assay with SK-MEL-28 melanoma. The GI50 with A498 renal is 0.117 µM; in the assay on HCT-116 colon it was under 0.01 µM; in the assay on 786-0 renal it was under 0.01 µM; in the assay on U251 CNS it was under 0.01 µM. The TGI was determined as 3.31 µM in the assay with RPMI-8226 leukemia; 1.49 µM in the assay on SK-MEL-5 melanoma; 12.1 µM with PC-3 prostate; 11 µM in the assay on ACHN renal; 2.4 µM in the assay with SF-539 CNS; 14.3 µM with SK-MEL-28 melanoma. In addition, the TGI in the assay on A498 renal is 4.89 µM; in the assay with HCT-116 colon, 10.9 µM; with 786-0 renal, 5.54 µM; in the assay on U251 CNS it was 11.9 µM.

The values above are taken from PubChem BioAssay (NCI).
